Laboratory results from patent publication US20080311126A1, “Antisense Oligonucleotides Directed to Ribonucleotide Reducatase R2 and Uses Thereof in Combination Therapies for the Treatment of Cancer” (Genesense Technologies, Inc, priority 2004, published 2008).
“Also recorded” adds a separate entry of the source.

Legend:
[1] = test system: MDA-MB-231 human breast cancer cells; experiment: MDA-MB-231 breast tumour xenograft in CD-1 nude mice; type: in vivo
Description: MDA-MB-231 human breast cancer cells (1×10^7 cells in 100 μl of PBS) were subcutaneously injected into the right flank of 6-7 weeks old female CD-1 nude mice. After the size of tumour reached an approximate volume of 100 mm^3, 5 days post tumour cell injection, SEQ ID NO:1, or the scrambled control oligonucleotide (SEQ ID NO:3) were administered by bolus infusion into the tail vein every other day at 10 mg/kg. Control animals received saline alone for the same period. Antitumour effect of SEQ ID NO:1 was further compared to that of taxol or doxorubicin alone or in combination. Taxol was administered intravenously once a week at a dose of 10 mg/kg for three (FIG. 17A) or four weeks (FIG. 17C). Doxorubicin was administered intravenously once a week at a dose of 5 mg/kg for first three weeks (FIG. 17A) or for two weeks (FIG. 17C). All treatments were stopped at day 33 (FIG. 17A) or at day 26 (FIG. 17C), respectively. A day after the last treatment, tumours were excised from the animals and their weights were measured. […] In FIG. 17C, antitumour activities were estimated by the inhibition of tumour volume, which was measured with calipers. Each point represents mean tumour volume calculated from 10 animals per experimental group.

[2] = test system: Hela S3 human cervix epitheloid carcinoma cells; experiment: Hela S3 hydroxyurea resistant cervix carcinoma xenograft in SCID mice; type: in vivo
Description: Hela S3 human cervix epitheloid carcinoma cells (5×10^5 cells in 100 μl of PBS) were subcutaneously injected into the right flank of 6-7 weeks old female SCID mice. Hela S3 is a hydroxyurea resistant cell line. After the size of tumour reached an approximate volume of 100 mm^3, 3 days post tumour cell injection, SEQ ID NO:1 was administered by bolus infusion into the tail vein every other day at 10 mg/kg 6 times. Control animals received saline alone for the same period. Antitumour effect of SEQ ID NO:1 was further compared to that of Hydroxyurea or Cisplatin alone or in combination. Hydroxyurea was administered intraperitoneally every day at a dose of 250 mg/kg for 10 days. Cisplatin was administered intravenously once a week for three weeks at a dose of 4 mg/kg. Antitumour activities were estimated by the inhibition of tumour volume, which was measured with caliper. Each point represents mean tumour volume calculated from 10 animals per experimental group. […] As expected, treatment with Hydroxyurea during the same period was ineffective against Hydroxyurea-resistant tumour.

[3] = test system: HT-29 human colon cancer cells; experiment: HT-29 colon tumour xenograft in CD-1 nude mice; type: in vivo
Description: HT-29 human colon cancer cells (3×10^6 cells in 100 μl of PBS) were subcutaneously injected into the right flank of 6-7 weeks old female CD-1 nude mice. After the size of tumour reached an approximate volume of 50 mm^3, 4 days post tumour cell injection, mitomycin C was administered by bolus infusion into the tail vein at days 4, 11 and 18 with a dose of 3.5 mg/kg/week. Antitumour effect of mitomycin C was further compared to that of SEQ ID NO:1 in combination with mitomycin C. SEQ ID NO:1 was administered by bolus infusion into the tail vein every day at 6 mg/kg and mitomycin C was administered intravenously at days 4, 11 and 18 with a dose of 3.5 mg/kg/week, one hour after the treatments with SEQ ID NO:1. Control animals received saline alone for the same period as SEQ ID NO:1. All treatments were stopped at day 22. A day after the last treatment, tumours were excised from the animals and their weights were measured.
HT-29 human colon cancer cells (3×10^6 cells in 100 μl of PBS) were subcutaneously injected into the right flank of 5-6 week old female CD-1 nude mice. After the size of tumour reached an approximate volume of 100 mm^3, 7 days post tumour cell injection, SEQ ID NO:1 was administered by bolus infusion into the tail vein every other day at 10 mg/kg. Control animals received saline alone for the same period. Antitumour effect of SEQ ID NO:1 was further compared to that of CPT-11 alone or that of SEQ ID NO:1 in combination with CPT-11. CPT-11 was administered intraperitoneally for 5 days in a row from […] with a dose of 20 mg/kg in 100 μl saline. All treatments were stopped at day 32. A day after the last treatment, tumours were excised from the animals and their weights were measured.
HT-29 human colon cancer cells (3×10^6 cells in 100 μl of PBS) were subcutaneously injected into the right flank of 6-7 week old female CD-1 nude mice. Treatments started at day 5 post tumour cell injection, SEQ ID NO:1 and 5-FU were administered as outlined below: • Groups and treatment: • Group 1. Saline treated group: saline:0.1 ml/2 days, i.v.; • Group 2. SEQ ID NO:1 treated group: 10 mg/kg/2 days in 100 μL saline, i.v.; • Group 3. 5-FU treated group:13 mg/kg/5 days/week (one week on and one week off), i.v.; • Group 4. SEQ ID NO:1 plus 5-FU treated group.
HT-29 human colon cancer cells (3×10^6 cells in 100 μl of PBS) were subcutaneously injected into the right flank of 5-6 week old female CD-1 nude mice. Treatments started 4 days post tumour cell injection, SEQ ID NO: 1 and Capecitabine were administered as outlined below: • Group and Treatment: • Group 1: treated with 0.2 ml vehicle solution for capecitabine, o.p.; • Group 2: treated with 0.1 ml saline, i.v.; • Group 3: treated with 359 mg/kg/day×5/w Capecitabine in 0.2 ml vehicle solution, o.p.; • Group 4: treated with 10 mg/kg/2 days SEQ ID NO:1 in 0.1 ml saline i.v.; • Group 5: treated with 10 mg/kg/2 days SEQ ID NO:1 in 0.1 ml saline, i.v. plus 359 mg/kg/day×5/w capecitabine in 0.2 ml vehicle solution, o.p.

[4] = test system: Hela S3 cells; experiment: Sensitization to chemotherapeutics by AS-II-2229B-20, relative colony forming efficiency; type: cell-based, human; conditions: HeLa S3, drug 20 μM
Description: (§1) Colony forming efficiency was determined using standard protocols. Briefly, the cells were cultured for 24 hours at 37° C. in growth medium with 10% fetal bovine serum. The cells were washed in 5 ml phosphate buffered saline, pH 7.2, once prior to lipofectin +/−oligonucleotide treatment.
(§2) The test oligonucleotides were added to cell cultures in the presence of 2.5 μg of DOTMA/DOPE (Lipofectin; Life Technologies, Inc.) for four hours. The oligonucleotide was tested at 0.2 μM unless otherwise indicated. Controls were the cultures treated with lipofectin but without the oligonucleotide. After 4 hours the medium containing the oligonucleotide was removed and washed with 5 ml of growth medium. The cells were then cultured in growth medium containing 10% fetal bovine serum for seven to ten days. Surviving cells were visualized by methylene blue staining, and colonies were scored. In some experiments cell aliquots were removed from the culture and viability was determined using the trypan blue exclusion test. Results were analyzed as percent of surviving cells compared to control cells.
(§3) Treatment of human tumour cells with very low concentrations of short antisense sequences was tested to determine if these constructs could sensitize the tumour cells to inhibitory effects of other chemotherapeutic drugs.

[5] = test system: Hela 1 mM cells; experiment: as above; type: cell-based, human; conditions: HeLa 1 mM
Description: as §1, §2, §3

[6] = test system: Caki-1 human renal carcinoma; experiment: Caki-1 renal tumour xenograft in SCID mice, SEQ ID NO:1 and interferon alpha; type: in vivo; conditions: Example 4
Description: Cell Line: Human renal carcinoma cell line (Caki-1) was grown as monolayer culture in Minimum essential medium (α-MEM) supplemented with 10% fetal bovine serum (FEBS), 0.1 mM non-essential amino acid, 1.0 mM sodium pyruvate, 100 U/ml penicillin, 100 μg/ml streptomycin and 0.25 μg/ml amphotericin B and 2 mM L-alanyl-L-glutamine at 37° C. in an atmosphere of 5% CO2 in air. The tumour cells were routinely subcultured twice weekly by trypsin-EDTA treatment. The cells were harvested from subconfluent logarithmically growing culture by treatment with trypsin-EDTA and counted for tumour inoculation.
Tumour Inoculation: An acclimation period of at least 7 days was allowed between animal receipt and commencement of tumour inoculation. When the female SCID mice were 6-7 weeks of age (20-25 g), each mouse was subcutaneously (s.c.) injected with 5×10^6 Caki-1 human renal carcinoma cells in 0.1 ml of PBS at the right flank of the mice to induce tumour growth.
Dose-Preparation and Treatment: The dose for SEQ ID NO:1 was formulated using the following procedure. From a concentrated stock solution (usually prepared in ddH2O at a concentration of 50 mg/ml and kept at −80° C.), SEQ ID NO:1 was diluted with saline to achieve a final target concentration of 1 or 2.5 mg/ml on the first day of dosing. Enough SEQ ID NO:1 was diluted so that the compound could be administered by bolus infusion into the tail vein every other day for the duration of the experiment. Recombinant interferon alfa-2b (Intron A™) was utilized according to the dose and treatment schedules below. The treatments were started 7 days after the tumour cell inoculation when the tumour size reached an approximate volume of 125 mm^3. Each treatment group contained 10 tumour-bearing mice. Routes of administration are indicated as follows: intravenous (i.v.) and intratumoural (i:t.).
Groups and Treatments: The following treatment groups were evaluated: • 1. Saline treated group-1: saline 0.1 ml/mouse/48 hours, i.v., n=10 • 2. Saline treated group-2: saline 0.05 ml/mouse/5 days/week, i.t., n=10 • 3. […] Intron A 10^3 unit/5 days/week treated group: 10^3 unit Intron A in 0.05 ml saline, i.t., n=10 • 6. Intron A 10^5 unit/5 days/week treated group: 10^5 unit Intron A in 0.05 ml saline, i.t., n=10 • 7. SEQ ID NO:1 1 mg/kg Plus Intron A 10^3 treated group: “3+5”, n=10 • 8. SEQ ID NO:1 1 mg kg Plus Intron A 10^5 treated group: “3+6”, n=10 • 9. SEQ ID NO:1 2.5 mg/kg Plus Intron A […], n=10 • 10. SEQ ID NO:1 2.5 mg/kg Plus Intron A 10^5 treated group: “4+6”, n=10
Mice received 25 treatments with SEQ ID NO:1 and 30 treatments with Intron A. The dosing schedule for Intron A was: treatment with Intron A for 3 consecutive weeks, 1 week off, and treatment with Intron A again for another 3 consecutive weeks. The dosing schedule for SEQ ID NO:1 was treatment with SEQ ID NO:1 every other day for the duration of the experiment.
Endpoints: The effects of SEQ ID NO:1 and Intron A on tumour growth were determined. Tumour sizes were measured every week from day 7 after the tumour cell inoculation in two dimensions using a caliper, and the volume was expressed in mm^3 using the formula: V=0.5 a×b^2, where a and b are the long and short diameters of the tumour, respectively. Mean tumour volumes calculated from each measurement were then plotted in a standard graph to compare the anti-tumour efficacy to that of controls. A day after the last treatment, tumours were excised from the animals and their weights were measured.
A second independent in vivo study was conducted as described in Example 1 utilizing SCID mice (female, 6 weeks old) and Caki-1 (human renal carcinoma cell line) to test the efficacy of SEQ ID NO:1 in combination with IFN alpha Briefly, 5×10^6 Caki-1 human renal carcinoma cells in 0.1 ml of PBS were injected subcutaneously at the right flank of the mice to induce tumour growth. Treatments started on the seventh day after tumour cell injection. […]

`COc1cccc2c1C(=O)c1c(O)c3c(c(O)c1C2=O)C[C@@](O)(C(=O)CO)C[C@@H]3O[C@H]1C[C@H](N)[C@H](O)[C@H](C)O1` [Doxorubicin] was tested, and the “Tumour weight as % of saline control” value ([1]; MDA-MB-231 (breast), Mouse CD-1) was 41%.

With `NC(=O)NO` [Hydroxyurea (HU), Hydroxyurea, reference compound] the “Tumour weight as % of saline control” value ([2]; Hela S3 (cervix), hydroxyurea resistance, SCID) was 92% and the “antitumour effect (tumour volume)” value ([2]; SEQ ID NO:1 10 mg/kg 6 times, Hydroxyurea 250 mg/kg i.p. 10 days, Cisplatin 4 mg/kg i.v. weekly) was “ineffective”.

In the case of `CO[C@@]12[C@H](COC(N)=O)C3=C(C(=O)C(C)=C(N)C3=O)N1C[C@@H]1N[C@@H]12` [Mitomycin C, reference compound], the “antitumour effect (tumour weight)” value ([3]; Example 12.1, mitomycin C 3.5 mg/kg/week i.v., SEQ ID NO:1 6 mg/kg every day i.v.) is reported as “significant delay of tumour growth” and the “Tumour weight as % of saline control” value ([3]; HT-29 (colon), Mouse CD-1, Mitomycin C study) is reported as 15%.

With `O=C(O)C[C@H](NC(=O)CP(=O)(O)O)C(=O)O` [PALA, N-(phosphonacetyl)-L-aspartate] the “Relative colony Forming Efficiency” value ([4]; with AS-II-2229B-20 0.02 μM) was 90 ± 10, the “Relative colony Forming Efficiency” value ([4]; without AS-II-2229B-20) was 350 ± 50 and the “Relative colony Forming Efficiency” value ([5]; drug 20 μM, with AS-II-2229B-20 0.02 μM) was 108 ± 7.5. The “Relative colony Forming Efficiency” value ([5]; drug 20 μM, without AS-II-2229B-20) was 377 ± 21, the “Relative colony Forming Efficiency” value ([5]; drug 30 μM, with AS-II-2229B-20 0.02 μM) was 101 ± 2.0 and the “Relative colony Forming Efficiency” value ([5]; drug 30 μM, without AS-II-2229B-20) was 311 ± 9.5.

In the case of “ACGCACTCAGCTAGTGACAC (listed as DNA, chemistry not given here) [SEQ ID NO:3, reference compound]”, the “effect on the efficacy of Intron A” value ([6]; SEQ ID NO:3 2.5 mg/kg plus Intron A 10^5) is reported as “did not improve the efficacy of Intron A”, the “anti-tumour efficacy (tumour volume, tumour weight)” value ([6]; oligonucleotide 2.5 mg/kg every 2 days i.v., Intron A 10^5 unit 5 days/week i.t.) is reported as “no efficacy as a monotherapy” and the “antitumour effect (tumour weight, tumour volume)” value ([1]; oligonucleotide 10 mg/kg every other day i.v., taxol 10 mg/kg, doxorubicin 5 mg/kg i.v. once a week) is reported as “no significant anti-tumour activity as a monotherapy; also recorded: does not cooperate with doxorubicin”.
